This note sets out measurements from US6803372B2, “Spiro compounds” (Banyu Pharmaceutical Co., Ltd., priority 1999, dated 2004).

The first data set deals with T1, human NPY Y5 receptor (Homo sapiens, UniProt Q15761).
T1 construct: expressed in transfected cells; host or cells: COS-7, CHO and LM(tk-)
T1 sequence (Q15761 1-445): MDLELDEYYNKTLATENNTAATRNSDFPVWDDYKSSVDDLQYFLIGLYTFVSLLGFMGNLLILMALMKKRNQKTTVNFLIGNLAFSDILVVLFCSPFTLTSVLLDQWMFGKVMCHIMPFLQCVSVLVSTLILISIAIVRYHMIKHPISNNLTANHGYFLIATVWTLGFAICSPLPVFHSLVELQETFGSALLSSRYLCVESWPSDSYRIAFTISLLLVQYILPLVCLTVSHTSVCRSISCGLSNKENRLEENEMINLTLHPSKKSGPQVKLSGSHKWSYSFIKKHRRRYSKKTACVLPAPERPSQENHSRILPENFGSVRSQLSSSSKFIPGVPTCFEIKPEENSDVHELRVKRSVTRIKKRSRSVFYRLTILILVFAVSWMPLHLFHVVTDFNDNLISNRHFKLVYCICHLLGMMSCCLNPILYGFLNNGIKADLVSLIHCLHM
Kind of data set: NPY binding inhibition test (Pharmacological Test 1). To be noted: [125I]peptideYY, membrane sample from cells expressing NPY Y5 receptor, 25° C., 2 hours; read-out: IC50 of the test compound against specific peptideYY binding. From the text: Pharmacological Test 1 (NPY Binding Inhibition Test)
cDNA sequence encoding human NPY Y5 receptor [International patent publication number WO96/16542] was cloned into expression vectors pcDNA3, pRc/RSV (made by Invitrogen Inc.) and pCI-neo (made by Promega Inc.). This obtained expression vectors were transfected to host cells COS-7, CHO and LM(tk-) (American Type Culture Collection) by cationic lipid method [Proceedings of the National Academy of Sciences of the United States of America, 84: 7413(1987)] to give NPY Y5 receptor expression cells.
A membrane sample prepared from the cells which expressed NPY Y5 receptor was incubated together with a test compound and [^125I]peptideYY (NEN) (20,000 cpm) in an assay buffer (25 mM Tris buffer, pH7.4, containing 10 mM magnesium chloride, 1 mM phenylmethylsulfonyl fluoride, 0.1% bacitracin and 0.5% bovine serum albumin) at 25° C. for 2 hours, then filtered through a glass filter GF/C and washed with 5 mM Tris buffer (pH7.4) containing 0.3% BSA. The radioactivity of the cake on the glass filter was measured. Nonspecific binding was measured in the presence of 1 μM peptideYY and a 50% Inhibitory Concentration (IC50) of the test compound against specific peptideYY binding was determined [Endocrinology, 131: 2090(1992)].
Regarding `O=C(c1ccccc1)c1ccc(NC(=O)N2CCC3(CC2)NC(=O)c2ccccc23)cc1` [Example 1, N-(4-benzoylphenyl)-3-oxospiro[isoindoline-1,4′-piperidine]-1′-carboxamide], the IC50 (commonly the point on the concentration scale where inhibition reaches its midpoint) was 1.2 nM. In the case of `O=C1Cc2ccccc2C2(CCN(C(=O)Nc3ccc(C(=O)c4ccccc4)cc3)CC2)O1` [Example 44, N-(4-benzoylphenyl)-3,4-dihydro-3-oxospiro[1H-2-benzopyran-1,4′-piperidine]-1′-carboxamide], the IC50 is 1.5 nM.

Test system in a further data set: not given
Test: not given
Settings: not given
Regarding `O=C1NC2(CCN(C(=O)Nc3cnc(-c4ccccc4)cn3)CC2)c2ccccc21` [Example 2, 3-oxo-N-(5-phenyl-2-pyrazinyl)spiro[isoindoline-1,4′-piperidine]-1′-carboxamide], the melting point (in general, the temperature, or range, at which the solid turns liquid) is 286 to 287 °C. In the case of `Cc1ccc2ccc(NC(=O)N3CCC4(CC3)NC(=O)c3ccccc34)nc2c1` [Example 3, N-(7-methyl-2-quinolyl)-3-oxospiro[isoindoline-1,4′-piperidine]-1′-carboxamide], the melting point lay in the range of 194 to 196 °C. For the molecule `O=C1Cc2ccccc2C2(CCN(C(=O)Nc3cnc(-c4ccccc4)cn3)CC2)N1` [Example 6, 3,4-Dihydro-3-oxo-N-(5-phenyl-2-pyrazinyl)spiro[isoquinoline-1(2H),4′-piperidine]-1′-carboxamide], the melting point fell in the range of 237 to 239 °C. Turning to `Cc1ccc2ccc(NC(=O)N3CCC4(CC3)NC(=O)Cc3ccccc34)nc2c1` [Example 7, 3,4-Dihydro-N-(7-methyl-2-quinolyl)-3-oxospiro[isoquinoline-1(2H),4′-piperidine]-1′-carboxamide], the melting point was in the range of 216 to 218 °C.

`CC(=O)c1ccc(NC(=O)N2CCC3(CC2)NC(=O)Cc2ccccc23)cc1` [Example 8, N-(4-acetylphenyl)-3,4-dihydro-3-oxospiro[isoquinoline-1(2H),4′-piperidine]-1′-carboxamide] gave a melting point of over 300 °C. On to `O=C1Cc2ccccc2C2(CCN(C(=O)Nc3ccc4c(c3)CCCC4=O)CC2)N1` [Example 10, 3,4-Dihydro-3-oxo-N-(5-oxo-5,6,7,8-tetrahydro-2-naphthyl)spiro[isoquinoline-1(2H),4′-piperidine]-1′-carboxamide], for which the melting point is 220.5 to 222.2 °C. In the case of `CC(C)=Cc1cnc(NC(=O)N2CCC3(CC2)NC(=O)Cc2ccccc23)cn1` [Example 11, 3,4-Dihydro-N-[5-(2-methyl-1-propenyl)-2-pyrazinyl]-3-oxospiro[isoquinoline-1(2H),4′-piperidine]-1′-carboxamide], the melting point lay within 232.9 to 236.5 °C. Molecule `O=C1Cc2ccccc2C2(CCN(C(=O)Nc3cc(-c4ccccc4)no3)CC2)N1` [Example 12, 3,4-Dihydro-3-oxo-N-(3-phenyl-5-isoxazolyl)spiro[isoquinoline-1(2H),4′-piperidine]-1′-carboxamide] had a melting point of 239 to 241 °C.

`O=C1Cc2ccccc2C2(CCN(C(=O)Nc3cn(-c4cccc5ccoc45)cn3)CC2)N1` [Example 13, N-[1-(7-benzo[b]furanyl)-4-imidazolyl]-3,4-dihydro-3-oxospiro[isoquinoline-1(2H),4′-piperidine]-1′-carboxamide] showed a melting point of 192 to 194 °C. `O=C1Cc2ccccc2C2(CCN(C(=O)Nc3cn(-c4cccc(OC(F)F)c4)cn3)CC2)N1` [Example 14, N-[1-(3-difluoromethoxyphenyl)-4-imidazolyl]-3,4-dihydro-3-oxospiro[isoquinoline-1(2H),4′-piperidine]-1′-carboxamide] registered a melting point of 161 to 163 °C. In turn, `O=C1Cc2ccccc2C2(CCN(C(=O)Nc3ccc(C(=O)c4ccccn4)cc3)CC2)N1` [Example 15, 3,4-Dihydro-3-oxo-N-[4-(2-pyridylcarbonyl)phenyl]spiro[isoquinoline-1(2H),4′-piperidine]-1′-carboxamide] returned a melting point of 162 to 164 °C. Take `O=C1Cc2ccccc2C2(CCN(C(=O)Nc3ccc(Cl)c(Cl)c3)CC2)N1` [Example 16, N-(3,4-dichlorophenyl)-3,4-dihydro-3-oxospiro[isoquinoline-1(2H),4′-piperidine]-1′-carboxamide]: the melting point is over 300 °C. On the same count and under the same terms, for `O=C1Cc2ccccc2C2(CCN(C(=O)Nc3cn(-c4cccc(Cl)c4)cn3)CC2)N1` [Example 17, N-[1-(3-chlorophenyl)-4-imidazolyl]-3,4-dihydro-3-oxospiro[isoquinoline-1(2H),4′-piperidine]-1′-carboxamide] the value was 255 to 258 °C. `O=C1Cc2ccccc2C2(CCN(C(=O)Nc3ncc(-c4ccccc4)s3)CC2)N1` [Example 18, 3,4-Dihydro-3-oxo-N-(5-phenyl-2-thiazolyl)spiro[isoquinoline-1(2H),4′-piperidine]-1′-carboxamide] returned a melting point of over 300 °C. The same measure, in the same setting: as for `O=C1Cc2ccccc2C2(CCN(C(=O)Nc3cnc(-c4ccccn4)cn3)CC2)N1` [Example 19, 3,4-Dihydro-3-oxo-N-[5-(2-pyridyl)-2-pyrazinyl]spiro[isoquinoline-1(2H),4′-piperidine]-1′-carboxamide], the figure is 223 to 225 °C. In the case of `Cc1cccc2sc(NC(=O)N3CCC4(CC3)NC(=O)Cc3ccccc34)nc12` [Example 20, 3,4-Dihydro-N-(4-methyl-2-benzothiazolyl)-3-oxospiro[isoquinoline-1(2H),4′-piperidine]-1′-carboxamide], the melting point fell in the range of 144 to 146 °C. As for `O=C1Cc2ccccc2C2(CCN(C(=O)Nc3nc4cc(Cl)ccc4o3)CC2)N1` [Example 21, N-(5-chloro-2-benzoxazolyl)-3,4-dihydro-3-oxospiro[isoquinoline-1(2H),4′-piperidine]-1′-carboxamide], the melting point fell in the range of 256 to 258 °C. Same read-out and setting: as for `Cc1ccc2ccc(NC(=O)N3CCC4(CC3)OC(=O)c3ccccc34)nc2c1` [Example 24, N-(7-methyl-2-quinolyl)-3-oxospiro[isobenzofuran-1(3H),4′-piperidine]-1′-carboxamide], the figure is 178 to 180 °C; as for `O=C1OC2(CCN(C(=O)Nc3cn(-c4cnc5ccccc5c4)cn3)CC2)c2ccccc21` [Example 28, 3-Oxo-N-[1-(3-quinolyl)-4-imidazolyl]spiro[isobenzofuran-1(3H),4′-piperidine]-1′-carboxamide], 251 to 254 °C; as for `O=C1OC2(CCN(C(=O)Nc3cc(-c4ccc(Cl)cc4)[nH]n3)CC2)c2ccccc21` [Example 30, N-[5-(4-chlorophenyl)-3-pyrazolyl]-3-oxospiro[isobenzofuran-1(3H),4′-piperidine]-1′-carboxamide], 255 to 258 °C. `O=C1OC2(CCN(C(=O)Nc3cc(-c4cnc5ccccc5c4)[nH]n3)CC2)c2ccccc21` [Example 31, 3-oxo-N-[5-(3-quinolyl)-3-pyrazolyl]spiro[isobenzofuran-1(3H),4′-piperidine]-1′-carboxamide] displayed a melting point of 253 to 257 °C. In turn, `O=C1OC2(CCN(C(=O)Nc3ccc4ncc(OC(F)F)cc4n3)CC2)c2ccccc21` [Example 35, N-(7-difluoromethoxypyrido[3,2-b]pyridin-2-yl)-3-oxospiro[isobenzofuran-1(3H),4′-piperidine]-1′-carboxamide] registered a melting point of 193 °C. `O=C1OC2(CCN(C(=O)Nc3cn(-c4cccc(CCO)c4)cn3)CC2)c2ccccc21` [Example 37, N-{1-[3-(2-hydroxyethyl)phenyl]-4-imidazolyl}-3-oxospiro[isobenzofuran-1(3H),4′-piperidine]-1′-carboxamide] displayed a melting point of 99 to 100 °C.

Consider `CCn1ccnc1-c1ccc(NC(=O)N2CCC3(CC2)OC(=O)c2ccccc23)cc1` [Example 38, N-[4-(1-ethyl-2-imidazolyl)phenyl]-3-oxospiro[isobenzofuran-1(3H),4′-piperidine]-1′-carboxamide], for which the melting point is 221 to 223 °C. Still for that read-out and setting: for `COc1cccc(-n2cnc(NC(=O)N3CCC4(CC3)OC(=O)c3ccccc34)c2)c1` [Example 39, N-[1-(3-methoxyphenyl)-4-imidazolyl]-3-oxospiro[isobenzofuran-1(3H),4′-piperidine]-1′-carboxamide] the value was 208 to 210 °C; for `O=C1Cc2ccccc2C2(CCN(C(=O)Nc3cnc(C(=O)c4ccccc4)cn3)CC2)O1` [Example 46, N-(5-benzoyl-2-pyrazinyl)-3,4-dihydro-3-oxospiro[1H-2-benzopyran-1,4′-piperidine]-1′-carboxamide], 128 to 131 °C.
